Data from patent US10761087B2, “Choroidal neovascularization suppressor or drusen formation suppressor, and method for assessing or screening for same” (Link Genomics, Inc., priority 2015, dated 2020).

Key:
[1] = tested on: EMT markers (mesenchymal markers, ECM) in RPE cells (ARPE-19); assay: Change in expression of EMT markers (real-time PCR) in EMT-induced RPE cells; assay type: cell-based, human; details: EMT-induced ARPE-19, 48 hours; for Enhancement of expression of Fibronectin, Snail and vimentin (mesenchymal markers): compound at Cmax, ½ of Cmax or ¼ of Cmax; for EMT suppression (FIG. 3 to FIG. 7) / Expression of EMT markers other than the ten common markers / Expression of Snail, Slug, CDH3, MMP1, MMP7, COL5A3, COL6A3, LAMC2, HMMR, TNC: oxaprozin 300 μM, epalrestat 30 μM, zafirlukast 3 μM, amlexanox 30 μM, zaltoprofen 30 μM
Procedure: RPE cells (ARPE-19) were seeded on a plate, and incubated for 5 days at 37° C. For the RPE cells, EMT was induced in the conditions described in Test example 1-1, and respective compounds (oxaprozin, epalrestat, zafirlukast, amlexanox, zaltoprofen) were added simultaneously, and the cells were collected after 48 hours from induction of EMT. As a control, a sample to which a compound to be assessed (test drug) is not added was used. The collected cells were washed with PBS, and 350 μL of an RLT buffer was added to prepare a lysate for RNA extraction. The respective compounds were used in the following concentrations. Oxaprozin: 300 μM, epalrestat: 30 μM, zafirlukast: 3 μM, amlexanox: 30 μM, zaltoprofen: 30 μM. Total RNA was extracted from the lysate using an RNeasy Micro kit (QIAGEN, #74004), and from 2 μg of the obtained RNA, cDNA was prepared using a SuperScript III First-Strand Synthesis SuperMix for qRT-PCR (Invitrogen, #11752-250). Using 50 ng of the obtained cDNA as a template, a real-time PCR (ABI Prism 7500 Sequence Detection System) was conducted according to the manufacturer's protocol, and expression of mRNA of each gene was quantified. Specific primers for respective genes were purchased from Invitrogen. Ct (Threshold Cycle) value of each gene was calculated as a percentage to a non-treated sample after normalization by endogenous control.
Five compounds (flufenamic acid aluminum (addition concentration: 28 μM (Cmax)), mefenamic acid (addition concentration: 39 μm (Cmax)), sulindac (addition concentration: 100 μM), tiaprofenic acid (addition concentration: 1000 μM), and seratrodast (addition concentration: 31 μM (Cmax))) were assessed for change in expression of EMT markers in the same manner as in Test example 2-1. The results are shown in FIG. 8 to FIG. 12, respectively.
(§1) RPE cells (ARPE-19) were seeded on a plate, and incubated for 5 days at 37° C. […] Each compound was added in a concentration of Cmax, ½ of Cmax or ¼ of Cmax. As a control, a sample to which a compound to be assessed (test drug) is not added was used. The collected cells were washed with PBS, and 350 μL of an RLT buffer was added to prepare a lysate for RNA extraction. Total RNA was extracted from the lysate using an RNeasy Micro kit (QIAGEN, #74004), and from 2 μg of the obtained RNA, cDNA was prepared using a SuperScript III First-Strand Synthesis SuperMix for qRT-PCR (Invitrogen, #11752-250). Using 50 ng of the obtained cDNA as a template, a real-time PCR (ABI Prism 7500 Sequence Detection System) was conducted according to the manufacturer's protocol, and expression of mRNA of each gene was quantified. Specific primers for respective genes were purchased from Invitrogen. Ct (Threshold Cycle) value of each gene was calculated as a percentage to a non-treated sample after normalization by endogenous control. For each result, a significant test (Student t test) was conducted, and when p<0.05, the result was marked with “*”, and when p<0.01, the result was marked with “**”.
RPE cells (ARPE-19) were seeded on a plate, and incubated for 5 days at 37° C. For the RPE cells, EMT was induced in the conditions described in Test example 5-1, and the five representative compounds (oxaprozin, epalrestat, zafirlukast, amlexanox, zaltoprofen) were added simultaneously, and the cells were collected after 48 hours from induction of EMT. As a control, a sample to which a compound to be assessed (test drug) is not added was used. The collected cells were washed with PBS, and 350 μL of an RLT buffer was added to prepare a lysate for RNA extraction. Total RNA was extracted from the lysate using an RNeasy Micro kit (QIAGEN, # 74004), and from 2 μg of the obtained RNA, cDNA was prepared using a SuperScript III First-Strand Synthesis SuperMix for qRT-PCR (Invitrogen, # 11752-250). […]

VEGF = assay: Change in expression of VEGF mRNA (real-time PCR) in EMT-induced RPE cells; assay type: cell-based, human; details: EMT-induced ARPE-19, 48 hours, compound at Cmax, ½ of Cmax or ¼ of Cmax
Procedure: as §1
The results are shown in FIG. 16 or FIG. 17, respectively.
The VEGF suppressive effect was assessed using the cell model as described above in the same manner as in Test example 2-3. The results are shown in FIG. 18 to FIG. 20, respectively.

| SMILES | Enhancement of expression of Fibronectin, Snail and vimentin (mesenchymal markers) [1] | EMT suppression (FIG. 3 to FIG. 7) [1] | Expression of EMT markers other than the ten common markers [1] | Expression of Snail, Slug, CDH3, MMP1, MMP7, COL5A3, COL6A3, LAMC2, HMMR, TNC [1] | Enhancement of VEGF mRNA expression by EMT induction (VEGF) | Enhancement of VEGF mRNA expression by EMT induction (VEGF; listed as oxaprozin) | Enhancement of VEGF mRNA expression by EMT induction (VEGF; listed as zaltoprofen) |
| --- | --- | --- | --- | --- | --- | --- | --- |
| O=C(O)CCc1nc(-c2ccccc2)c(-c2ccccc2)o1 [Oxaprozin, oxaprozin] | suppressed enhancement of expression of these in a concentration dependent manner | significantly suppress EMT | decrease in expression was observed in ZEB2, MMP3, COL1A1, COL1A2, CSPG4, and SRGN | suppressed expression | suppressed enhancement of VEGF expression in a concentration dependent manner | suppress enhancement of mRNA expression of VEGF | – |
| CC(C(=O)O)c1ccc2c(c1)CC(=O)c1ccccc1S2 (stereo not drawn) [Zaltoprofen, zaltoprofen] | suppressed enhancement of expression of these in a concentration dependent manner | significantly suppress EMT | decrease in expression was observed in ZEB2, FN1, COL13A1, and CSPG4 | suppressed expression | suppressed enhancement of VEGF expression in a concentration dependent manner | – | suppress enhancement of mRNA expression of VEGF |
